Experimental data: patent US9133180B2, “Aurora and FLT3 kinases modulators” (SAREUM LIMITED, priority 2012, dated 2015)

Assays:
[1] = test system: L-363; assay: CellTiter-Blue assay, haematological cell line; assay type: cell-based; details: Homo sapiens, 96 h; L-363 (MM), four days treatment
Description: (§1) The compounds of Examples 2 and 7 were tested against a range of human haematological cell lines using the CellTiter-Blue® assay (#G8081, Promega) according to the manufacturer's instructions. Cells were harvested from exponential phase cultures, counted and plated in 96 well flat-bottom microtiter plates at a cell density of 20,000-90,000 cells/well. After a 24 h recovery period to allow the cells to resume exponential growth, 10 μl of culture medium (four control wells/plate) or of culture medium with test compound were added. The compounds were applied in duplicates at ten concentrations and treatment continued for four days. After treatment of cells, 10 μl/well CellTiter-Blue® reagent was added. Following an incubation period of up to four hours, fluorescence (FU) was measured by using the EnVision Xcite multilabel reader (excitation λ=531 nm, emission λ=615 nm). The compounds were tested in two to four independent experiments for each cell line.

[2] = test system: CCRF-CEM/VCR; assay: CellTiter-Blue assay, haematological cell line; assay type: cell-based; details: Homo sapiens, 96 h; CCRF-CEM/VCR (ALL), four days treatment
Description: as §1

[3] = test system: KM-H2; assay: CellTiter-Blue assay, haematological cell line; assay type: cell-based; details: Homo sapiens, 96 h; KM-H2 (HL), four days treatment
Description: as §1

[4] = test system: JURL-MK1; assay: CellTiter-Blue assay, haematological cell line; assay type: cell-based; details: Homo sapiens, 96 h; JURL-MK1 (CML), four days treatment
Description: as §1

[5] = test system: K-562; assay: CellTiter-Blue assay, haematological cell line; assay type: cell-based; details: Homo sapiens, K562, 96 h; K-562 (CML), four days treatment
Description: as §1

[6] = test system: NCI-H929; assay: CellTiter-Blue assay, haematological cell line; assay type: cell-based; details: Homo sapiens, 96 h; NCI-H929 (MM), four days treatment
Description: as §1

[7] = test system: MEG-01; assay: CellTiter-Blue assay, haematological cell line; assay type: cell-based; details: Homo sapiens, 96 h; MEG-01 (CML), four days treatment
Description: as §1

[8] = test system: KG-1; assay: CellTiter-Blue assay, haematological cell line; assay type: cell-based; details: Homo sapiens, 96 h; KG-1 (AML), four days treatment
Description: as §1

[9] = test system: LP-1; assay: CellTiter-Blue assay, haematological cell line; assay type: cell-based; details: Homo sapiens, 96 h; LP-1 (MM), four days treatment
Description: as §1

[10] = test system: OCI-AML2; assay: CellTiter-Blue assay, haematological cell line; assay type: cell-based; details: Homo sapiens, 96 h; OCI-AML2 (AML), four days treatment
Description: as §1

[11] = test system: KCL-22; assay: CellTiter-Blue assay, haematological cell line; assay type: cell-based; details: Homo sapiens, 96 h; KCL-22 (CML), four days treatment
Description: as §1

[12] = test system: CCRF-CEM; assay: CellTiter-Blue assay, haematological cell line; assay type: cell-based; details: Homo sapiens, 96 h; CCRF-CEM (ALL), four days treatment
Description: as §1

[13] = test system: U-937; assay: CellTiter-Blue assay, haematological cell line; assay type: cell-based; details: Homo sapiens, 96 h; U-937 (NHL), four days treatment
Description: as §1

[14] = test system: PL-21; assay: CellTiter-Blue assay, haematological cell line; assay type: cell-based; details: Homo sapiens, 96 h; PL-21 (AML), four days treatment
Description: as §1

[15] = test system: JURKAT; assay: CellTiter-Blue assay, haematological cell line; assay type: cell-based; details: Homo sapiens, 96 h; JURKAT (ALL), four days treatment
Description: as §1

[16] = test system: MOLT-4; assay: CellTiter-Blue assay, haematological cell line; assay type: cell-based; details: Homo sapiens, 96 h; MOLT-4 (ALL), four days treatment
Description: as §1

[17] = test system: NOMO-1; assay: CellTiter-Blue assay, haematological cell line; assay type: cell-based; details: Homo sapiens, 96 h; NOMO-1 (AML), four days treatment
Description: as §1

[18] = test system: HL-60; assay: CellTiter-Blue assay, haematological cell line; assay type: cell-based; details: Homo sapiens, 96 h; HL-60 (AML), four days treatment
Description: as §1

[19] = test system: EM-2; assay: CellTiter-Blue assay, haematological cell line; assay type: cell-based; details: Homo sapiens, 96 h; EM-2 (CML), four days treatment
Description: as §1

[20] = test system: MV4-11; assay: CellTiter-Blue assay, haematological cell line; assay type: cell-based; details: Homo sapiens, 96 h; MV4-11 (AML), four days treatment
Description: as §1

[21] = test system: IM-9; assay: CellTiter-Blue assay, haematological cell line; assay type: cell-based; details: Homo sapiens, 96 h; IM-9 (MM), four days treatment
Description: as §1

[22] = test system: RAJI; assay: CellTiter-Blue assay, haematological cell line; assay type: cell-based; details: Homo sapiens, 96 h; RAJI (NHL), four days treatment
Description: as §1

[23] = test system: HUT-78; assay: CellTiter-Blue assay, haematological cell line; assay type: cell-based; details: Homo sapiens, HuT78, 96 h; HUT-78 (NHL), four days treatment
Description: as §1

[24] = test system: MV4-11 xenograft tumors; assay: MV4-11 xenograft study in nude mice; assay type: in vivo, Balb/c nude mouse; details: 4 cycles; for tumour inhibitory rate (IR): 5 days on, 2 day off, tumour weight at end point
Text: The in vivo antitumour activity of compounds of the invention was investigated by examining the effect of the compounds of Examples 2 and 7 on tumour growth in a nude mouse xenograft model of the MV4-11 cancer cell line.
MV4-11 cell line (ATCC, USA); RPMI 1640 medium (Invitrogen, USA); FBS (Invitrogen, Australia); Balb/c nude mouse (Slac Laboratory Animal Co., Ltd., Shanghai, China): female, 18-22 g; HP-6-CD (Sigma, USA).
A total of 52 female nude mice were used. The mice were allowed 3 days of acclimatization period before starting the experiment. Mice were implanted subcutaneously (s.c.) with 200 μl of 1×10^7MV4-11 tumour cells in 50% Matrigel in the right flank at the beginning of the study. When tumours reached an average volume of 100-150 mm^3, 32 mice out of the 52 were selected based on tumour volume, and randomly assigned to 4 groups prior to dosing. Each treatment group consisted of 8 tumour-bearing animals (n=8/group).
A comparison group of mice were treated with cytarabine once daily for 5 days on, 2 days off, for 4 cycles.
Mice were weighed at each dosing and the tumour sizes recorded twice each week. Mice were observed closely for any overt signs of adverse, treatment-related side effects and these were recorded if and when they were observed.
The tumour size was measured twice weekly in two dimensions using calipers, and the volume was expressed in mm^3 using the formula: V=0.5 a×b^2 where a and b were the long and short diameters of the tumour, respectively.
Mice were euthanized by CO2 exposure after 4-cycle dose. The tumour volume, weight of dissected tumours, and the mouse body weight were measured and recorded. The tumour inhibitory rate (IR) was calculated by the formula IR=(WV−WT)/WV×100%.
The differences in tumour size between the groups were analyzed for significance using the unpaired two-tailed Student's t-test. P<0.05 was considered to be statistically significant.

Cc1cc(F)c2[nH]ccc2c1-c1nc(C(N)=O)c(-c2ccc(N3CCNC(C)(C)C3)cc2)o1 [Example 7, 2-(5-Methyl-7-Fluoro-1H-Indol-4-yl)-5-[4-(3,3-dimethyl-piperazin-1-yl)-phenyl]-oxazole-4-carboxylic acid amide]
IC50 [1]: 104 nM | IC50 [2]: 239 nM | IC50 [3]: 137 nM | IC50 [4]: 98 nM | IC50 [5]: 219 nM | IC50 [6]: 1400 nM | IC50 [7]: 468 nM | IC50 [8]: 137 nM | IC50 [9]: 1010 nM | IC50 [10]: 91 nM | IC50 [11]: 366 nM | IC50 [12]: 46 nM | IC50 [13]: 155 nM | IC50 [14]: 91 nM | IC50 [15]: 93 nM | IC50 [16]: 45 nM | IC50 [17]: 61 nM | IC50 [18]: 52 nM | IC50 [19]: 493 nM | IC50 [20]: 9 nM | IC50 [21]: 70 nM | IC50 [22]: 1800 nM | IC50 [23]: 123 nM | effect on tumour growth (tumour volume) ([24]; 30 mg/kg IV BID): completely inhibited the tumor growth | tumour inhibitory rate (IR) ([24]; 30 mg/kg IV BID): 98.24%

Cc1ccc2[nH]ccc2c1-c1nc(C(N)=O)c(-c2ccc(N3CCNC(C)(C)C3)cc2)o1 [Example 2, 2-(5-Methyl-1H-Indol-4-yl)-5-[4-(3,3-dimethyl-piperazin-1-yl)-phenyl]-oxazole-4-carboxylic acid amide]
IC50 [1]: 121 nM | IC50 [2]: 458 nM | IC50 [3]: 189 nM | IC50 [4]: 141 nM | IC50 [5]: 326 nM | IC50 [6]: 852 nM | IC50 [7]: 633 nM | IC50 [8]: 76 nM | IC50 [9]: 1070 nM | IC50 [10]: 103 nM | IC50 [11]: 417 nM | IC50 [12]: 50 nM | IC50 [13]: 94 nM | IC50 [14]: 99 nM | IC50 [15]: 91 nM | IC50 [16]: 48 nM | IC50 [17]: 95 nM | IC50 [18]: 64 nM | IC50 [19]: 604 nM | IC50 [20]: 9 nM | IC50 [21]: 70 nM | IC50 [22]: 2850 nM | IC50 [23]: 138 nM | effect on tumour growth (tumour volume) ([24]; 20 mg/kg IV BID): completely inhibited the tumor growth | tumour inhibitory rate (IR) ([24]; 20 mg/kg IV BID): 98.13%
